For the experiment, the target named is T1, mouse VISTA (mVISTA) (Mus musculus, UniProt Q9D659).
T1 construct: expressed in transfected cells; host or cells: Human embryonic kidney 293T cells
T1 sequence (Q9D659 33-308): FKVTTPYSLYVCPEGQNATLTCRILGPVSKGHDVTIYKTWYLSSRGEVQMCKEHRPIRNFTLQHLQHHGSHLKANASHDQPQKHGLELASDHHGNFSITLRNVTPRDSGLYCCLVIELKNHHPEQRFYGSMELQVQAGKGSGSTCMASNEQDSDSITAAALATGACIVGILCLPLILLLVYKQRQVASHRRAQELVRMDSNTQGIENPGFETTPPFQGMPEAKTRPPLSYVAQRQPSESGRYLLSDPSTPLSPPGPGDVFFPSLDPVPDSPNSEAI
The experiment in a line: Cell-Based Binding High-Content Assay For mVISTA (HC CBA mVISTA). As to conditions: cell-based binding high-content assay, mVISTA; read-out: HC CBA miPr ISTA IC50. The method in brief:
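This high-content binding assay uses HEK293T cells expressing murine VISTA, measuring displacement of 2 nM biotinylated peptide by fluorescent streptavidin imaging. IC50 values come from four-parameter logistic fitting.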

Starred links: 1 amine or outer side, 2 acyl side, 3 side chain; linkers in the order of their positions; H or OH if unused. Positions of bridges follow the written chain, without caps; N, C: chain ends. Non-standard residues stand in square brackets, D forms with d. Residues, ends and D or L forms follow the SMILES beside them. Phe(4-COOH) = N[C@@H](Cc1ccc(C(=O)O)cc1)C(=O)O; βAsp = O=C(O)[C@H](CC(=O)[*:2])N[*:1]; Aad = N[C@@H](CCCC(=O)O)C(=O)O; Cha = N[C@@H](CC1CCCCC1)C(=O)O; NMeL = CN[C@@H](CC(C)C)C(=O)O; Ahp(2) = CCCCC[C@H](N)C(=O)O; NMeNle = CCCC[C@H](NC)C(=O)O; Tle = CC(C)(C)[C@H](N)C(=O)O; NHexGly = CCCCCCNCC(=O)O; Orn = NCCC[C@H](N)C(=O)O; Aun = NCCCCCCCCCCC(=O)O; Abu = CC[C@H](N)C(=O)O; AEEA = NCCOCCOCC(=O)O

A word on the IC50: it is the concentration that inhibits the measured activity by half. As to `CCCCCCN1CC(=O)N[C@@H](Cc2ccc(O)cc2)C(=O)N[C@@H](CC(C)C)C(=O)N[C@@H](CC(N)=O)C(=O)N[C@@H](CCCNC(=N)N)C(=O)N(C)[C@@H](CC(C)C)C(=O)N[C@@H](CCCCC)C(=O)N2CCC[C@H]2C(=O)N[C@@H](C(C)(C)C)C(=O)N[C@@H](CO)C(=O)N[C@H](C(=O)N[C@@H](CC(=O)NCCOCCOCC(=O)N[C@@H](CC(=O)O)C(=O)NCCOCCOCC(=O)NCCCCCCCCCCC(=O)O)C(=O)O)CSCC(=O)N[C@@H](Cc2ccc(C(=O)O)cc2)C(=O)N[C@@H](Cc2ccc(O)cc2)C(=O)N[C@@H](CC(=O)O)C1=O` [compound 2052] ({CH2CO}-[Phe(4-COOH)]YD[NHexGly]YLNR[NMeL][Ahp(2)]P[Tle]SC[βAsp][AEEA]D[AEEA][Aun]-OH; thioether N-14), the half-maximal inhibitory concentration (IC50) was 31.7 nM.
Consider `CCCCCCN1CC(=O)N[C@@H](Cc2ccc(O)cc2)C(=O)N[C@@H](CC2CCCCC2)C(=O)N[C@@H](CC(N)=O)C(=O)N[C@@H](CCCNC(=N)N)C(=O)N(C)[C@@H](CCCC)C(=O)N[C@@H](CCCCC)C(=O)N2CCC[C@H]2C(=O)N[C@@H](C(C)(C)C)C(=O)N[C@@H](CO)C(=O)N[C@H](C(=O)N[C@@H](CC(=O)NCCOCCOCC(=O)N[C@@H](CC(=O)O)C(=O)NCCOCCOCC(=O)NCCCCCCCCCCC(=O)O)C(=O)O)CSCC(=O)N[C@@H](Cc2ccccc2)C(=O)N[C@@H](Cc2ccc(O)cc2)C(=O)N[C@@H](CC(=O)O)C1=O` [compound 2053] ({CH2CO}-FYD[NHexGly]Y[Cha]NR[NMeNle][Ahp(2)]P[Tle]SC[βAsp][AEEA]D[AEEA][Aun]-OH; thioether N-14), for which the concentration for half-maximal inhibition (IC50) worked out at 39.4 nM.
`CCCCCCN1CC(=O)N[C@@H](Cc2ccc(O)cc2)C(=O)N[C@@H](CCCC(=O)O)C(=O)N[C@@H](CC(N)=O)C(=O)N[C@@H](CCCNC(=N)N)C(=O)N(C)[C@@H](CCCC)C(=O)N[C@@H](CCCCC)C(=O)N2CCC[C@H]2C(=O)N[C@@H](C(C)(C)C)C(=O)N[C@@H](CO)C(=O)N[C@H](C(=O)N[C@@H](CC(=O)NCCOCCOCC(=O)N[C@@H](CC(=O)O)C(=O)NCCOCCOCC(=O)NCCCCCCCCCCC(=O)O)C(=O)O)CSCC(=O)N[C@@H](Cc2ccccc2)C(=O)N[C@@H](Cc2ccc(O)cc2)C(=O)N[C@@H](CC(=O)O)C1=O` [compound 2054] ({CH2CO}-FYD[NHexGly]Y[Aad]NR[NMeNle][Ahp(2)]P[Tle]SC[βAsp][AEEA]D[AEEA][Aun]-OH; thioether N-14): the IC50 worked out at 23.2 nM.
The figure for `CCCCCCN1CC(=O)N[C@@H](Cc2ccc(O)cc2)C(=O)N[C@@H](CC2CCCCC2)C(=O)N[C@@H](CC(N)=O)C(=O)N[C@@H](CCCN)C(=O)N(C)[C@@H](CCCC)C(=O)N[C@@H](CCCCC)C(=O)N2CCC[C@H]2C(=O)N[C@@H](C(C)(C)C)C(=O)N[C@@H](CO)C(=O)N[C@H](C(=O)N[C@@H](CC(=O)NCCOCCOCC(=O)N[C@@H](CC(=O)O)C(=O)NCCOCCOCC(=O)NCCCCCCCCCCC(=O)O)C(=O)O)CSCC(=O)N[C@@H](Cc2ccccc2)C(=O)N[C@@H](Cc2ccc(O)cc2)C(=O)N[C@@H](CC(=O)O)C1=O` [compound 2055] ({CH2CO}-FYD[NHexGly]Y[Cha]N[Orn][NMeNle][Ahp(2)]P[Tle]SC[βAsp][AEEA]D[AEEA][Aun]-OH; thioether N-14) is 32.7 nM.
The figure for `CCCCCCN1CC(=O)N[C@@H](Cc2ccc(O)cc2)C(=O)N[C@@H](CCCC(=O)O)C(=O)N[C@@H](CC(N)=O)C(=O)N[C@@H](CCCN)C(=O)N(C)[C@@H](CCCC)C(=O)N[C@@H](CCCCC)C(=O)N2CCC[C@H]2C(=O)N[C@@H](C(C)(C)C)C(=O)N[C@@H](CO)C(=O)N[C@H](C(=O)N[C@@H](CC(=O)NCCOCCOCC(=O)N[C@@H](CC(=O)O)C(=O)NCCOCCOCC(=O)NCCCCCCCCCCC(=O)O)C(=O)O)CSCC(=O)N[C@@H](Cc2ccccc2)C(=O)N[C@@H](Cc2ccc(O)cc2)C(=O)N[C@@H](CC(=O)O)C1=O` [compound 2056] ({CH2CO}-FYD[NHexGly]Y[Aad]N[Orn][NMeNle][Ahp(2)]P[Tle]SC[βAsp][AEEA]D[AEEA][Aun]-OH; thioether N-14) is 26.1 nM; for `CCCCCCN1CC(=O)N[C@@H](Cc2ccc(O)cc2)C(=O)N[C@@H](C)C(=O)N[C@@H](CC(N)=O)C(=O)N[C@@H](CCCNC(=N)N)C(=O)N(C)[C@@H](CCCC)C(=O)N[C@@H](CCCCC)C(=O)N2CCC[C@H]2C(=O)N[C@@H](C(C)(C)C)C(=O)N[C@@H](CO)C(=O)N[C@H](C(=O)N[C@@H](CC(=O)NCCOCCOCC(=O)N[C@@H](CC(=O)O)C(=O)NCCOCCOCC(=O)NCCCCCCCCCCC(=O)O)C(=O)O)CSCC(=O)N[C@@H](Cc2ccccc2)C(=O)N[C@@H](Cc2ccc(O)cc2)C(=O)N[C@@H](CC(=O)O)C1=O` [compound 2058] ({CH2CO}-FYD[NHexGly]YANR[NMeNle][Ahp(2)]P[Tle]SC[βAsp][AEEA]D[AEEA][Aun]-OH; thioether N-14) it is 27.6 nM.
On to `CCCCCCN1CC(=O)N[C@@H](Cc2ccc(O)cc2)C(=O)N[C@@H](CC)C(=O)N[C@@H](CC(N)=O)C(=O)N[C@@H](CCCNC(=N)N)C(=O)N(C)[C@@H](CCCC)C(=O)N[C@@H](CCCCC)C(=O)N2CCC[C@H]2C(=O)N[C@@H](C(C)(C)C)C(=O)N[C@@H](CO)C(=O)N[C@H](C(=O)N[C@@H](CC(=O)NCCOCCOCC(=O)N[C@@H](CC(=O)O)C(=O)NCCOCCOCC(=O)NCCCCCCCCCCC(=O)O)C(=O)O)CSCC(=O)N[C@@H](Cc2ccccc2)C(=O)N[C@@H](Cc2ccc(O)cc2)C(=O)N[C@@H](CC(=O)O)C1=O` [compound 2059] ({CH2CO}-FYD[NHexGly]Y[Abu]NR[NMeNle][Ahp(2)]P[Tle]SC[βAsp][AEEA]D[AEEA][Aun]-OH; thioether N-14), for which the IC50 worked out at 37.4 nM.
Consider `CCCCCCN1CC(=O)N[C@@H](Cc2ccc(O)cc2)C(=O)N[C@@H](CC)C(=O)N[C@@H](CC(N)=O)C(=O)N[C@@H](CCCN)C(=O)N(C)[C@@H](CCCC)C(=O)N[C@@H](CCCCC)C(=O)N2CCC[C@H]2C(=O)N[C@@H](C(C)(C)C)C(=O)N[C@@H](CO)C(=O)N[C@H](C(=O)N[C@@H](CC(=O)NCCOCCOCC(=O)N[C@@H](CC(=O)O)C(=O)NCCOCCOCC(=O)NCCCCCCCCCCC(=O)O)C(=O)O)CSCC(=O)N[C@@H](Cc2ccccc2)C(=O)N[C@@H](Cc2ccc(O)cc2)C(=O)N[C@@H](CC(=O)O)C1=O` [compound 2060] ({CH2CO}-FYD[NHexGly]Y[Abu]N[Orn][NMeNle][Ahp(2)]P[Tle]SC[βAsp][AEEA]D[AEEA][Aun]-OH; thioether N-14), for which the IC50 is 24.7 nM.
Take `CCCCCCN1CC(=O)N[C@@H](Cc2ccc(O)cc2)C(=O)N[C@@H](C)C(=O)N[C@@H](CC(N)=O)C(=O)N[C@@H](CCCN)C(=O)N(C)[C@@H](CCCC)C(=O)N[C@@H](CCCCC)C(=O)N2CCC[C@H]2C(=O)N[C@@H](C(C)(C)C)C(=O)N[C@@H](CO)C(=O)N[C@H](C(=O)N[C@@H](CC(=O)NCCOCCOCC(=O)N[C@@H](CC(=O)O)C(=O)NCCOCCOCC(=O)NCCCCCCCCCCC(=O)O)C(=O)O)CSCC(=O)N[C@@H](Cc2ccccc2)C(=O)N[C@@H](Cc2ccc(O)cc2)C(=O)N[C@@H](CC(=O)O)C1=O` [compound 2061] ({CH2CO}-FYD[NHexGly]YAN[Orn][NMeNle][Ahp(2)]P[Tle]SC[βAsp][AEEA]D[AEEA][Aun]-OH; thioether N-14): the IC50 came out at 21.5 nM.

Values taken from US20240218022A1, “ANTI-VISTA MACROCYCLIC PEPTIDES AND COMPOSITIONS” (BRISTOL-MYERS SQUIBB COMPANY, priority 2022, published 2024).
